# Results published in ChEMBL document CHEMBL4052720, “Activity cliff for 7-substituted pyrrolo-pyrimidine inhibitors of HCK explained in terms of predicted basicity of the amine nitrogen” (Bioorg Med Chem, 2017).
# pIC50: −log10 of the molar value.
# Experiments:
# [1] = molecular target: T1, Tyrosine-protein kinase HCK (Homo sapiens, UniProt P08631); assay: Inhibition of HCK (75 to 526 residues) (unknown origin) expressed in Sf9 insect cells after 120 mins; settings: for pIC50: read-out: IC50
# [2] = molecular target: T1, Tyrosine-protein kinase HCK; assay: biochemical
# T1 sequence (P08631 whole entry, the tested form may be a part): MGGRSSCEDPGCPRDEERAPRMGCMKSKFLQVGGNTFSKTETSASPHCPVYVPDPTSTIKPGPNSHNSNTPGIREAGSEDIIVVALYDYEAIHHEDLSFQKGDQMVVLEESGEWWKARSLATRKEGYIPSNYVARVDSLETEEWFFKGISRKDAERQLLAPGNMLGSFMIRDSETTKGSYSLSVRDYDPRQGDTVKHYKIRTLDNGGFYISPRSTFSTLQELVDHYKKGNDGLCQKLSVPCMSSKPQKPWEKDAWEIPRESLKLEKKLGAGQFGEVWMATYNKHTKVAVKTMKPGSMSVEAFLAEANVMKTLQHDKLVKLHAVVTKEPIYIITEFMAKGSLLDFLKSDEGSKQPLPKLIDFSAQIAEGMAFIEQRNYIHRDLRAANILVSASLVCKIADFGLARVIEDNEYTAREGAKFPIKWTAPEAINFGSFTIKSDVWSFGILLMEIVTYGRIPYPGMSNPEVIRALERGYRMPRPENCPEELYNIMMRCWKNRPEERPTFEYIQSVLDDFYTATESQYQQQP
pIC50 [1],SMILES,IC50 ([1]; read-out: pIC50 (converted)) [nM],pIC50 [2]
6.68,CC(C)C[C@H](N[C@H]1CC[C@H](n2cc(-c3ccc(Oc4ccccc4)cc3)c3c(N)ncnc32)CC1)C(N)=O,,
5.88,CCOC(=O)[C@H](CC(C)C)N[C@H]1CC[C@H](n2cc(-c3ccc(Oc4ccccc4)cc3)c3c(N)ncnc32)CC1,,
6.95,CNC(=O)[C@H](CC(C)C)N[C@H]1CC[C@H](n2cc(-c3ccc(Oc4ccccc4)cc3)c3c(N)ncnc32)CC1,,
7.96,CC(C)C[C@H](N[C@H]1CC[C@H](n2cc(-c3ccc(Oc4ccccc4)cc3)c3c(N)ncnc32)CC1)C(=O)O,,
6.16,CC(C)C[C@H](N[C@H]1CC[C@H](n2cc(-c3ccc(Oc4ccccc4)cc3)c3c(N)ncnc32)CC1)C(=O)N(C)C,,
,CN1CCN([C@H]2CC[C@H](n3cc(-c4ccc(Oc5ccccc5)cc4)c4c(N)ncnc43)CC2)CC1,0.427,9.37
